By AC50 is commonly meant the midpoint of the concentration-response curve, whichever way the signal moves.

Results on 20 compounds are retold here after patent US20250171437A1 (Agios Pharmaceuticals,Inc., priority 2022, published 2025).

Bounds are passed on as bounds.

The target of the experiment is T1, human PAH with the R408W mutation (A375 R408W cells) (Homo sapiens, UniProt P00439, R408W).
T1 construct: expressed in transfected cells
T1 sequence (P00439 1-452 R408W): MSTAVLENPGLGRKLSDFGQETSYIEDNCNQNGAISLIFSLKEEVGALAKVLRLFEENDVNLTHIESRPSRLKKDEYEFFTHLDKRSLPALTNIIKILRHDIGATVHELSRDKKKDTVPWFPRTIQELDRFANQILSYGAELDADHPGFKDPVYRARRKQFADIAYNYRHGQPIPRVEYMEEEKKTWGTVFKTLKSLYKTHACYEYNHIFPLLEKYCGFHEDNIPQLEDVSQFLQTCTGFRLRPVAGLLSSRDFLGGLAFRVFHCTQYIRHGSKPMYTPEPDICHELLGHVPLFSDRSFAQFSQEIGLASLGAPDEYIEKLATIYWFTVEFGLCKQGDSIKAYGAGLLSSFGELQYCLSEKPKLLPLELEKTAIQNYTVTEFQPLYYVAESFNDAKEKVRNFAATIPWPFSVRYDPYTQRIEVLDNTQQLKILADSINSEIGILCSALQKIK
Description: Cell Based Phenylalanine Flux Assay. To be noted: A375 R408W cells; 24 hrs with compound, then 20 μM sepiapterin and 800 μM 13C9,15N-Phenylalanine for 4 hours; 13C-Tyrosine by LC-MS; average where tested multiple times. In a few lines: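 A375 cells stably expressing lentiviral human PAH R408W were treated with compounds (10-point 2-fold dilutions, 0.5% DMSO, duplicate) for 24 h at 37 °C. Then 20 μM sepiapterin and 800 μM 13C9,15N-Phe were added for 4 h; media 13C-Tyr was measured by LC-MS to give AC50.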
As to `Cc1ccc2oc([C@H]3c4nc[nH]c4CCN3C(=O)c3oc(C(C)(C)O)nc3Br)nc2c1` [Example 408, (R)-(4-bromo-2-(2-hydroxypropan-2-yl)oxazol-5-yl)(4-(5-methylbenzo[d]oxazol-2-yl)-6,7-dihydro-1H-imidazo[4,5-c]pyridin-5(4H)-yl)methanone], the AC50 was 500 to 1000 nM.
For `O=C(CCc1cncs1)N1CCc2[nH]cnc2[C@H]1c1nc2cccc(F)c2o1` [Example 409, (S)-1-(4-(7-fluorobenzo[d]oxazol-2-yl)-6,7-dihydro-1H-imidazo[4,5-c]pyridin-5(4H)-yl)-3-(thiazol-5-yl)propan-1-one], the AC50 was 500 to 1000 nM.
For `O=C(CCc1cncs1)N1CCc2[nH]cnc2[C@@H]1c1nc2cccc(F)c2o1` [Example 410, (R)-1-(4-(7-fluorobenzo[d]oxazol-2-yl)-6,7-dihydro-1H-imidazo[4,5-c]pyridin-5(4H)-yl)-3-(thiazol-5-yl)propan-1-one], the concentration at half-maximal activity (AC50) lay within 1000 to 5000 nM.
Regarding `Cn1ccc(-c2nc(C(F)F)c(C(=O)N3CCc4[nH]cnc4[C@H]3c3nc4cc(F)ccc4o3)o2)n1` [Example 411, (S)-(4-(difluoromethyl)-2-(1-methyl-1H-pyrazol-3-yl)oxazol-5-yl)(4-(5-fluorobenzo[d]oxazol-2-yl)-6,7-dihydro-1H-imidazo[4,5-c]pyridin-5(4H)-yl)methanone], the AC50 was at most 500 nM.
For the compound `Cn1ccc(-c2nc(C(F)F)c(C(=O)N3CCc4[nH]cnc4[C@@H]3c3nc4cc(F)ccc4o3)o2)n1` [Example 412, (R)-(4-(difluoromethyl)-2-(1-methyl-1H-pyrazol-3-yl)oxazol-5-yl)(4-(5-fluorobenzo[d]oxazol-2-yl)-6,7-dihydro-1H-imidazo[4,5-c]pyridin-5(4H)-yl)methanone], the AC50 fell in the range of 500 to 1000 nM.
Consider `O=C(c1oc(N2CCOCC2)nc1C(F)F)N1CCc2[nH]cnc2[C@H]1c1nc2cc(F)ccc2o1` [Example 413, (S)-(4-(difluoromethyl)-2-morpholinooxazol-5-yl)(4-(5-fluorobenzo[d]oxazol-2-yl)-6,7-dihydro-1H-imidazo[4,5-c]pyridin-5(4H)-yl)methanone], for which the AC50 lay in the range of 500 to 1000 nM.
On to `O=C(c1oc(N2CCOCC2)nc1C(F)F)N1CCc2[nH]cnc2[C@@H]1c1nc2cc(F)ccc2o1` [Example 414, (R)-(4-(difluoromethyl)-2-morpholinooxazol-5-yl)(4-(5-fluorobenzo[d]oxazol-2-yl)-6,7-dihydro-1H-imidazo[4,5-c]pyridin-5(4H)-yl)methanone], for which the AC50 lay in the range of 1000 to 5000 nM.
Take `CC(C)(O)c1nc(C(F)F)c(C(=O)N2CCc3[nH]cnc3[C@H]2c2nc3cc(Br)ccc3o2)o1` [Example 415, [(4S)-4-(5-bromo-1,3-benzoxazol-2-yl)-1,4,6,7-tetrahydroimidazo[4,5-c]pyridin-5-yl]-[4-(difluoromethyl)-2-(1-hydroxy-1-methyl-ethyl)oxazol-5-yl]methanone]: the AC50 lay in the range of 500 to 1000 nM.
`CC(C)(O)c1nc(C(F)F)c(C(=O)N2CCc3[nH]cnc3[C@@H]2c2nc3cc(Br)ccc3o2)o1` [Example 416, [(4R)-4-(5-bromo-1,3-benzoxazol-2-yl)-1,4,6,7-tetrahydroimidazo[4,5-c]pyridin-5-yl]-[4-(difluoromethyl)-2-(1-hydroxy-1-methyl-ethyl)oxazol-5-yl]methanone]: the concentration at half-maximal activity (AC50) was in the range of 500 to 1000 nM.
As to `O=C(c1oc(-c2ccc(F)cn2)nc1C(F)F)N1CCc2[nH]cnc2[C@@H]1c1nc2cc(F)ccc2o1` [Example 417, (R)-(4-(difluoromethyl)-2-(5-fluoropyridin-2-yl)oxazol-5-yl)(4-(5-fluorobenzo[d]oxazol-2-yl)-6,7-dihydro-1H-imidazo[4,5-c]pyridin-5(4H)-yl)methanone], the concentration at half-maximal activity (AC50) was at most 500 nM.
For the compound `O=C(c1oc(-c2ccc(F)cn2)nc1C(F)F)N1CCc2[nH]cnc2[C@H]1c1nc2cc(F)ccc2o1` [Example 418, (S)-(4-(difluoromethyl)-2-(5-fluoropyridin-2-yl)oxazol-5-yl)(4-(5-fluorobenzo[d]oxazol-2-yl)-6,7-dihydro-1H-imidazo[4,5-c]pyridin-5(4H)-yl)methanone], the half-maximal activity concentration (AC50) was at most 500 nM.
Regarding `O=C(c1oc(-c2cccnc2)nc1C(F)F)N1CCc2[nH]cnc2[C@@H]1c1nc2cc(F)ccc2o1` [Example 419, (R)-(4-(difluoromethyl)-2-(pyridin-3-yl)oxazol-5-yl)(4-(5-fluorobenzo[d]oxazol-2-yl)-6,7-dihydro-1H-imidazo[4,5-c]pyridin-5(4H)-yl)methanone], the AC50 lay within 500 to 1000 nM.
As for `O=C(c1oc(-c2cccnc2)nc1C(F)F)N1CCc2[nH]cnc2[C@H]1c1nc2cc(F)ccc2o1` [Example 420, (S)-(4-(difluoromethyl)-2-(pyridin-3-yl)oxazol-5-yl)(4-(5-fluorobenzo[d]oxazol-2-yl)-6,7-dihydro-1H-imidazo[4,5-c]pyridin-5(4H)-yl)methanone], the half-maximal activity concentration (AC50) was at most 500 nM.
Turning to `O=C(c1oc(-c2ccncc2)nc1C(F)F)N1CCc2[nH]cnc2[C@H]1c1nc2cc(F)ccc2o1` [Example 421, (S)-(4-(difluoromethyl)-2-(pyridin-4-yl)oxazol-5-yl)(4-(5-fluorobenzo[d]oxazol-2-yl)-6,7-dihydro-1H-imidazo[4,5-c]pyridin-5(4H)-yl)methanone], the AC50 was at most 500 nM.
Take `O=C(c1oc(-c2ccncc2)nc1C(F)F)N1CCc2[nH]cnc2[C@@H]1c1nc2cc(F)ccc2o1` [Example 422, (R)-(4-(difluoromethyl)-2-(pyridin-4-yl)oxazol-5-yl)(4-(5-fluorobenzo[d]oxazol-2-yl)-6,7-dihydro-1H-imidazo[4,5-c]pyridin-5(4H)-yl)methanone]: the AC50 lay within 500 to 1000 nM.
Turning to `CC(C)(O)c1nc(C(F)F)c(C(=O)N2CCc3[nH]cnc3[C@H]2c2nc3cccc(Cl)c3o2)o1` [Example 423, (S)-(4-(7-chlorobenzo[d]oxazol-2-yl)-6,7-dihydro-1H-imidazo[4,5-c]pyridin-5(4H)-yl)(4-(difluoromethyl)-2-(2-hydroxypropan-2-yl)oxazol-5-yl)methanone], the AC50 is at most 500 nM.
On to `CC(C)(O)c1nc(C(F)F)c(C(=O)N2CCc3[nH]cnc3[C@@H]2c2nc3cccc(Cl)c3o2)o1` [Example 424, (R)-(4-(7-chlorobenzo[d]oxazol-2-yl)-6,7-dihydro-1H-imidazo[4,5-c]pyridin-5(4H)-yl)(4-(difluoromethyl)-2-(2-hydroxypropan-2-yl)oxazol-5-yl)methanone], for which the AC50 is at most 500 nM.
On to `O=C(c1ocnc1C(F)F)N1CCc2[nH]cnc2[C@H]1c1nc2cccc(Cl)c2o1` [Example 425, (S)-(4-(7-chlorobenzo[d]oxazol-2-yl)-6,7-dihydro-1H-imidazo[4,5-c]pyridin-5(4H)-yl)(4-(difluoromethyl)oxazol-5-yl)methanone], for which the AC50 was at most 500 nM.
In the case of `O=C(c1ocnc1C(F)F)N1CCc2[nH]cnc2[C@@H]1c1nc2cccc(Cl)c2o1` [Example 426, (R)-(4-(7-chlorobenzo[d]oxazol-2-yl)-6,7-dihydro-1H-imidazo[4,5-c]pyridin-5(4H)-yl)(4-(difluoromethyl)oxazol-5-yl)methanone], the AC50 is at most 500 nM.
The figure for `COc1cccc2oc([C@@H]3c4nc[nH]c4CCN3C(=O)c3oc(C(C)(C)O)nc3C(F)F)nc12` [Example 427, (S)-(4-(difluoromethyl)-2-(2-hydroxypropan-2-yl)oxazol-5-yl)(4-(4-methoxybenzo[d]oxazol-2-yl)-6,7-dihydro-1H-imidazo[4,5-c]pyridin-5(4H)-yl)methanone] is at most 500 nM.
